Reference: patent US6585982B1, “Treatment of infertility” (NNA/S, priority 1999, dated 2003)

Tests used:
metaphase II oocytes [1] = assay: FF-MAS as adjunct to a standard FSH based IVF treatment (GnRH antagonist Cetrorelix protocol, ICSI); assay type: cell-based, human
Procedure: (§1) The patient underwent down regulation with recombinant FSH with an average daily dose of 225 IU starting on Day 1 or 2 of the current cycle and used a GnRH antagonist, i.e., Cetrorelix (1 mg daily, subcutaneously, one shot), in the current cycle. At least 3 follicles of 17 mm or more were present at the time of administering hCG, i.e., Profasi (10.000 IU, one shot). Follicles were aspirated and metaphase II oocytes were cultured in oocyte culture system containing standard in vitro fertilization (IVF) media (IVF 20 (which is available from Scandinavian IVF Science AB, Gothenburg, Sweden)) supplemented with human serum albumin (0.8%) and FF-MAS (5 μM). All oocytes were cultured under normal conditions at 37° C. in the incubator. Each oocyte was cultured in one well in a four-chamber culture dish as culture media system. […] Preembryos were evaluated for cleavage stage and fragmentation/morphology at 1, 2 and 3 days post ICSI. […] The patient received an estrogen, i.e., Estrofem (6 mg/daily), and a progesterone, i.e. Utrogestan (600 mg/daily, micronized, vaginal suppository), to render the endometrium lining the patient uterus responsive and ready for allowing implantation of the transferred eggs. […]

metaphase II oocytes [2] = assay: FF-MAS as adjunct to a standard FSH based IVF treatment (GnRH analog Synarel down regulation, ICSI); assay type: cell-based, human
Excerpt: as §1, with “regulation with an GnRH analog, i.e., Synarel (nasal spray, two puffs daily), for at least 14 days (starting in the luteal phase of the previous cycle or Day 1 or 2 in the follicular phase of the current cycle) and ovarian stimulation” for “regulation”, “225 IU.” for “225 IU starting on Day 1 or 2 of the current cycle and used a GnRH antagonist, i.e., Cetrorelix (1 mg daily, subcutaneously, one shot), in the current cycle.”, “hCG, i.e. Profase” for “hCG, i.e., Profasi”, “progesterone, i.e.,” for “progesterone, i.e.”, “suppository), daily” for “suppository),”

[3] = FF-MAS 5 μM, 0.8% HSA in IVF 20 medium, 4 hours before and 20 hours after ICSI

Measured: results of the IVF procedure compared with the known procedures

CC(C)=CCC[C@@H](C)[C@H]1CC=C2C3=C(CC[C@@]21C)[C@@]1(C)CC[C@H](O)C(C)(C)[C@@H]1CC3 [FF-MAS, 4,4-dimethyl-5α-cholesta-8,14,24-triene-3β-ol]
better results: metaphase II oocytes [1]; [3] | metaphase II oocytes [1]; FF-MAS 20 μM, otherwise procedure of Example 3 | metaphase II oocytes [2]; [3] | metaphase II oocytes [2]; FF-MAS 20 μM, otherwise procedure of Example 4
